Results reported in ChEMBL document CHEMBL1133461, “ElogPoct: a tool for lipophilicity determination in drug discovery” (J Med Chem, 2000).

Assays:
[1] = Partition coefficient (logP) (HPLC); conditions: octanol/water
[2] = Partition coefficient (logP); conditions: octanol/water
[3] = HPLC capacity factor (k); type: ADME

SMILES | logP [1] | Log k'w | logP [2] | Log K'w [3]
c1ccc2ccccc2c1 | 3.51 | 3.06 | – | –
Oc1cc(Cl)cc(Cl)c1 | 3.88 | 3.4 | 3.68 | –
CSc1ncnc2c1ncn2[C@@H]1O[C@H](CO)[C@@H](O)[C@H]1O | 0.34 | 0.19 | – | –
Oc1cccc(Cl)c1 | – | 2.49 | – | –
Brc1cnc2ccccc2c1 | 2.93 | 2.54 | – | –
CC(=O)Nc1ccc(O)cc1 [ACETAMINOPHEN] | 0.11 | – | 0.51 | -0.02
CC(=O)c1ccccc1 [ACETOPHENONE] | – | 1.31 | – | –
Oc1ncnc2[nH]ncc12 [ALLOPURINOL] | -0.85 | – | – | -0.89
Cc1cc(=O)n(-c2ccccc2)n1C [ANTIPYRINE] | – | – | – | 0.09
c1ccc(-c2ccc(C(c3ccccc3)n3ccnc3)cc2)cc1 (stereo unspecified) [BIFONAZOLE] | 4.95 | 4.37 | – | –
O=C1CN=C(c2ccccn2)c2cc(Br)ccc2N1 [BROMAZEPAM] | 1.38 | – | 1.65 | 1.13
Cn1c(=O)c2c(ncn2C)n(C)c1=O [CAFFEINE] | – | -0.31 | – | –
NC(=O)N1c2ccccc2C=Cc2ccccc21 [CARBAMAZEPINE] | 2.01 | – | 2.19 | 1.7
Clc1ccccc1C(c1ccccc1)(c1ccccc1)n1ccnc1 [CLOTRIMAZOLE] | – | 4.13 | – | –
C[C@@H]1C[C@H]2[C@@H]3CCC4=CC(=O)C=C[C@]4(C)[C@@]3(F)[C@@H](O)C[C@]2(C)[C@@]1(O)C(=O)CO [DEXAMETHASONE] | 2.37 | 2.03 | – | –
CC/C(=C(/CC)c1ccc(O)cc1)c1ccc(O)cc1 [DIETHYLSTILBESTROL] | 4.72 | 4.16 | – | –

SMILES | logP [1] | Log k'w | logP [2] | Log K'w [3]
C[C@]12CC[C@@H]3c4ccc(O)cc4CC[C@H]3[C@@H]1CC[C@@H]2O [ESTRADIOL] | 3.82 | 3.34 | – | –
COC1=CC(=O)C[C@@H](C)[C@]12Oc1c(Cl)c(OC)cc(OC)c1C2=O [GRISEOFULVIN] | 2.57 | 2.21 | – | –
CC(=O)OCC(=O)[C@@]1(O)CC[C@H]2[C@@H]3CCC4=CC(=O)CC[C@]4(C)[C@H]3[C@@H](O)C[C@@]21C [HYDROCORTISONE ACETATE] | 2.26 | 1.93 | 2.19 | –
C[C@]12CCC(=O)C=C1CC[C@@H]1[C@@H]2[C@@H](O)C[C@@]2(C)[C@H]1CC[C@]2(O)C(=O)CO [HYDROCORTISONE] | – | 1.43 | – | –
O=C1Nc2ccc(Cl)cc2C(c2ccccc2Cl)=NC1O (stereo unspecified) [LORAZEPAM] | 2.74 | – | – | 2.36
CN1C(=O)C(O)N=C(c2ccccc2Cl)c2cc(Cl)ccc21 (stereo unspecified) [LORMETAZEPAM] | 2.78 | 2.4 | 2.72 | –
Cc1ncc([N+](=O)[O-])n1CCO [METRONIDAZOLE] | -0.22 | – | – | -0.32
O=[N+]([O-])c1ccc(/C=N/O)o1 [NIFUROXIME] | 1.36 | 1.11 | 1.28 | –
NC(=O)N/N=C/c1ccc([N+](=O)[O-])o1 [NITROFURAZONE] | 0.24 | 0.1 | – | –
CC(=O)CCCCn1c(=O)c2c(ncn2C)n(C)c1=O [PENTOXIFYLLINE] | 0.31 | 0.16 | 0.29 | –
C[C@]12C=CC(=O)C=C1CC[C@@H]1[C@@H]2[C@@H](O)C[C@@]2(C)[C@H]1CC[C@]2(O)C(=O)CO [PREDNISOLONE] | 1.83 | 1.54 | – | –
C[C@]12C=CC(=O)C=C1CC[C@@H]1[C@@H]2C(=O)C[C@@]2(C)[C@H]1CC[C@]2(O)C(=O)CO [PREDNISONE] | 1.47 | 1.21 | – | –
c1ccc2ncccc2c1 [QUINOLINE] | 1.85 | – | – | –
C[C@]12CC[C@H]3[C@@H](CCC4=CC(=O)CC[C@@]43C)[C@@H]1CC[C@@H]2O [TESTOSTERONE] | – | 2.74 | – | –
CS(=O)(=O)c1ccc([C@@H](O)[C@@H](CO)NC(=O)C(Cl)Cl)cc1 [THIAMPHENICOL] | -0.13 | -0.24 | -0.27 | –
Cc1cccc(N(C)C(=S)Oc2ccc3ccccc3c2)c1 [TOLNAFTATE] | 5.15 | 4.55 | 5.4 | –
